{
  "source": "patent US20090246776A1",
  "about": "“Modulators of scarb-1 for treating acne or hyperseborrhea” (GALDERMA RESEARCH & DEVELOPMENT, priority 2006, published 2009)",
  "tested_on": "SCARB-1 gene",
  "details": "gonadectomized male mice, short-term treatment; effect not visible at 18, 24, 48 and 96 hours",
  "procedure": "The expression of the genes was analyzed on an Affymetrix station (microfluidic model; hybridization oven; scanner; computer) following the protocols provided by the company. Briefly, the total RNA isolated from the tissues is transcribed to cDNA. From the double-stranded cDNA, a cRNA labeled with biotin is synthesized using T7 polymerase and a precursor NTP conjugated to biotin. The cRNAs are then fragmented to small sized fragments. All the molecular biology steps are checked using the Agilent “Lab on a chip” system in order to confirm the good efficiencies of the enzymatic reactions. The Affymetrix chip is hybridized with the biotinylated cRNA, rinsed and then fluorescence labeled using a fluorophore conjugated to streptavidin. After washings, the chip is scanned and the results are calculated using the MAS5 software provided by Affymetrix. An expression value is obtained for each gene as well as the indication of the significance of the value obtained.\nB. Male mice were gonadectomized and treated with the vehicle or DHT. A kinetic study of the expression of the gene from 15 minutes to 96 hours was carried out. For this, the preputial glands were removed for a period ranging up to 4 days (androgenic treatment alone observation of a short-term kinetics), the RNA was isolated and the expression of the genes was analyzed by the Affymetrix technique (FIG. 2).",
  "data": [
    {"smiles": "C[C@]12CCC(=O)C[C@@H]1CC[C@@H]1[C@@H]2CC[C@]2(C)[C@@H](O)CC[C@@H]12", "note": "[DHT, Dihydrotestosterone]", "values": [
      {"measurement": "mRNA for SCARB-1 in the mouse preputial gland", "value": "not induced"}
    ]}
  ]
}
